# Laboratory results from PubChem BioAssay AID1549 (Sanford-Burnham Center for Chemical Genomics, 2009).
# The source made the active and inactive calls. How the calls were made is not given here.
# Target: Influenza A virus M2 proton channel (A/TW/4845/1999 H1N1)
# Test: NMR binding screen, influenza A virus M2 proton channel, Kd (AID 1549)
# Conditions: M2 protein
row,SMILES,Kd
1,COc1ccccc1CNc1nc2nc(C)cc(=O)n2[nH]1,> 4 mM (inactive)
2,Cc1ccc(C)c(S(=O)(=O)NCc2cccnc2)c1,> 4 mM (inactive)
3,COc1ccc(C2CC(=O)c3ccc(OC)cc3O2)cc1 (centres undefined),> 4 mM (inactive)
4,O=C1CN(C(=O)c2ccccc2)c2ccccc2N1,> 4 mM (inactive)
5,S=c1[nH]cnc2sccc12,> 4 mM (inactive)
6,COC(=O)Nc1ccc2ncn(C)c(=O)c2c1,> 4 mM (inactive)
7,Clc1ccccc1OCc1nc(-c2ccncc2)no1,> 4 mM (inactive)
8,CC(C)CCCC(C)[C@H]1CCC2C3CC[C@@H]4C[C@H](O)CC[C@]4(C)C3CC[C@@]21C (some centres undefined),> 4 mM (inactive)
9,C=CCc1cc(C(=O)N2CCCCC2)ccc1O,> 4 mM (inactive)
10,O=C(O)CC12CC3CC(CC(O)(C3)C1)C2,> 4 mM (inactive)
11,CCn1c(C)c(C(C)=O)c(N2CCOCC2)nc1=S,> 4 mM (inactive)
12,CC(=O)N/N=C(\C)c1cccc(N)c1,> 4 mM (inactive)
13,Cn1c(NCc2ccco2)nc2ccccc21,> 4 mM (inactive)
14,NC(=O)C1CCN(C(=S)Nc2ccccc2)CC1,> 4 mM (inactive)
15,Cn1c(=O)n(CC(=O)N2CCOCC2)c2ccccc21,> 4 mM (inactive)
16,O=C(O)Cc1c[nH]c2ccccc12,> 4 mM (inactive)
17,Cc1oc(-c2ccccc2)cc1CO,> 4 mM (inactive)
18,Cn1cnc2nc3n(c2c1=O)CCC3,> 4 mM (inactive)
19,CN(C)S(=O)(=O)NCc1ccc2c(c1)OCO2,> 4 mM (inactive)
20,COc1ccccc1C(=O)NC1CCN(C)CC1,> 4 mM (inactive)
21,OCc1snnc1-c1ccccc1,> 4 mM (inactive)
22,O=C(Nc1ccc2c(c1)OCCO2)c1c(F)cccc1F,> 4 mM (inactive)
23,Nc1cccc2nsnc12,> 4 mM (inactive)
24,c1ccc2c(NC3=NCCS3)cccc2c1,> 4 mM (inactive)

row,SMILES,Kd
1,O=C1O[C@H](C(O)CO)C(O)=C1O (some centres undefined),> 4 mM (inactive)
2,O=C(O)c1cccc(CSc2ncccn2)c1,> 4 mM (inactive)
3,COc1ccc(C(O)c2nccn2C)cc1 (centres undefined),> 4 mM (inactive)
4,Cc1nc(-c2ccccc2)sc1CN,> 4 mM (inactive)
5,Nc1cc(C(F)(F)F)ccc1N1CCOCC1,> 4 mM (inactive)
6,Clc1ccccc1OCc1nc(-c2ccccn2)no1,> 4 mM (inactive)
7,O=S1(=O)CCC(N2CCCCC2)C1 (centres undefined),> 4 mM (inactive)
8,NCc1ccc(-c2cccs2)s1,> 4 mM (inactive)
9,CN1C2CC3C[C@H]1C(O3)C2O (some centres undefined),> 4 mM (inactive)
10,CC1=C/C(=C\c2c(O)[nH]c(=O)[nH]c2=O)C(C)=N1,> 4 mM (inactive)
11,CC(=O)c1cc(C)ccc1O,> 4 mM (inactive)
12,CC(=O)Nc1cccc(N(C)S(C)(=O)=O)c1,> 4 mM (inactive)
13,Cc1cc(=O)n2ccc(CN3CCOCC3)c(O)c2n1,> 4 mM (inactive)
14,COc1c(C(C)C)oc2cc3oc(=O)ccc3cc12,> 4 mM (inactive)
15,NC(CC(=O)O)c1ccccc1 (centres undefined),> 4 mM (inactive)
16,c1ccc(Cn2cccc2)nc1,> 4 mM (inactive)
17,Cc1cc(C)n2nc(C(=O)Nc3cccnc3)nc2n1,> 4 mM (inactive)
18,Cc1nc2nc(Cc3ccccc3)[nH]n2c(=O)c1Cl,> 4 mM (inactive)
19,O=C1CC[C@]23/C=C/C(=O)NCCCCNCCCNC(=O)/C=C/c4ccc(c2c4)O[C@@H]3C1,> 4 mM (inactive)
20,Cc1n[nH]c(C)c1CC(=O)O,> 4 mM (inactive)
21,COc1cc(O)c2c(=O)c(O)c(-c3ccc(O)c(O)c3)oc2c1,> 4 mM (inactive)
22,NC(=O)C(=O)Nc1nc(-c2ccccc2)cs1,> 4 mM (inactive)
23,C=C1C(=O)O[C@@H]2C[C@@]3(C)CCC[C@H](C)C3=C[C@H]12,> 4 mM (inactive)
24,O=[N+]([O-])c1cccc(CN2CCC(O)CC2)c1,> 4 mM (inactive)

row,SMILES,Kd
1,C/C1=C/CC(C)(C)/C=C/C/C(C)=C/CC1,> 4 mM (inactive)
2,CCCc1cc2c(c(NC(C)=O)n1)c(=O)oc1ccccc12,> 4 mM (inactive)
3,Nc1ncnc2c1ncn2CCN1CCOCC1,> 4 mM (inactive)
4,C[C@H]1OC(O[C@H]2[C@@H](O)CC(O[C@H]3[C@@H](O)C[C@H](O[C@H]4CC[C@]5(C)C6CC[C@]7(C)[C@@H](C8=CC(=O)OC8)[C@@H](O)C[C@]7(O)[C@@H]6CC[C@@H]5C4)O[C@@H]3C)O[C@@H]2C)C[C@H](O)C1O (some centres undefined),> 4 mM (inactive)
5,Cc1cccc(-n2c(N)cc(=O)[nH]c2=S)c1C,> 4 mM (inactive)
6,CCC(=O)Oc1ccc(N2C(=O)CCC2=O)cc1,> 4 mM (inactive)
7,CC(C)CCCC(C)[C@H]1CCC2C3CC=C4C[C@@H](O)CC[C@]4(C)C3CC[C@@]21C (some centres undefined),> 4 mM (inactive)
8,CC(=O)c1ccc(NS(=O)(=O)c2cccc(C)c2)cc1,> 4 mM (inactive)
9,CN(c1ccccc1C(=O)N1CCOCC1)S(C)(=O)=O,> 4 mM (inactive)
10,Nc1ccc(-n2cncn2)cc1,> 4 mM (inactive)
11,CN1CCC(N2CCN(C)CC2)CC1,> 4 mM (inactive)
12,Nc1ccc(Cc2ccncc2)cc1,> 4 mM (inactive)
13,OCc1ccccc1CN1CCOCC1,> 4 mM (inactive)
14,O=C(CC1SC(=O)NC1=O)Nc1nccs1 (centres undefined),> 4 mM (inactive)
15,COC(=O)c1ccc2snnc2c1,> 4 mM (inactive)
16,Nc1nonc1-c1nc2ccccc2[nH]1,> 4 mM (inactive)
17,O=C(O)c1cccnc1N1CCOCC1,> 4 mM (inactive)
18,Oc1cccc(N2CCOCC2)c1,> 4 mM (inactive)
19,NC(=O)N1CCc2ccccc21,> 4 mM (inactive)
20,CC(C)(C)c1cc(N)n[nH]1,> 4 mM (inactive)
21,O=C(O)C1CC(=O)N(CCc2ccc(Cl)cc2)C1 (centres undefined),> 4 mM (inactive)
22,O=C(Nc1c[nH]c(=O)[nH]c1=O)c1cccs1,> 4 mM (inactive)
23,CC(NC(=O)c1ccco1)C1CCCO1 (centres undefined),> 4 mM (inactive)
24,C[C@H]1[C@H]2CCC3C4CC=C5C[C@@H](N(C)C)CC[C@]5(C)C4CC[C@@]32CN1C (some centres undefined),> 4 mM (inactive)

row,SMILES,Kd
1,CC(=O)Nn1c(=O)[nH]c2ccccc2c1=O,> 4 mM (inactive)
2,NC(=O)CN1CCC(c2nc3ccccc3[nH]2)CC1,> 4 mM (inactive)
3,Cc1cc(O)cc(=O)o1,> 4 mM (inactive)
4,NC(=O)Cn1nc(-c2ccco2)ccc1=O,> 4 mM (inactive)
5,N=c1n(N)c2ccccc2n1CCO,> 4 mM (inactive)
6,CNC(=O)C(=O)Nc1cccc(Cl)c1,> 4 mM (inactive)
7,Cc1cc(=O)n2[nH]c(C)cc2n1,> 4 mM (inactive)
8,O=C(Nc1ccccc1)c1cnc2n(c1=O)CCS2,> 4 mM (inactive)
9,O=C(O)c1cc(O)c(O)c(O)c1,> 4 mM (inactive)
10,O=c1[nH]c2sc3c(c2c2ncnn12)CCCC3,> 4 mM (inactive)
11,COc1c2c(cc3c1OCO3)C13C=C[C@H](OC)CC1N(C2)CC3O (some centres undefined),> 4 mM (inactive)
12,Cc1ccc(C(=O)N2CC(=O)NC(=O)C2)cc1,> 4 mM (inactive)
13,CNC(=S)NCCN1CCOCC1,> 4 mM (inactive)
14,COc1ccc2c(c1)O[C@H]1c3ccc(OC)cc3OC[C@@H]21,> 4 mM (inactive)
15,COc1ccc(-c2nnsc2N)cc1,> 4 mM (inactive)
16,CC1(C)C(=O)C=C[C@@]2(C)C1CC(=O)[C@]1(C)C2CC[C@@]2(C)[C@H](c3ccoc3)OC(=O)[C@H]3O[C@]321 (some centres undefined),> 4 mM (inactive)
17,COC(=O)c1c(C)cc(OC(=O)c2c(C)cc(O)c(C=O)c2O)c(C)c1O,> 4 mM (inactive)
18,O=C(c1ccncc1)c1ccc(Br)cc1,> 4 mM (inactive)
19,O=C(Nc1ccccc1)c1cccc(N2C(=O)CCC2=O)c1,> 4 mM (inactive)
20,O=C(Nc1ccccc1)N1CCOCC1,> 4 mM (inactive)
21,Cc1cc(=O)[nH]c2ccccc12,> 4 mM (inactive)
22,Nc1[nH]c(=S)ncc1S(=O)(=O)c1ccccc1,> 4 mM (inactive)
23,Cc1cc(C)n(-c2nncn2N)n1,> 4 mM (inactive)
24,COC1CC(O[C@H]2CC[C@]3(C=O)C4CC[C@]5(C)C(C6=CC(=O)OC6)CC[C@]5(O)C4CC[C@]3(O)C2)OC(C)C1O (some centres undefined),> 4 mM (inactive)

row,SMILES,Kd
1,CC(Sc1ncn[nH]1)C(=O)O (centres undefined),> 4 mM (inactive)
2,C[C@@H]1CC[C@@]23CCC4(C)[C@@](C=CC5[C@@]6(C)CCC(=O)C(C)(C)C6CC[C@]54C)(OC2=O)C3[C@H]1C (some centres undefined),> 4 mM (inactive)
3,Cc1cc(C(=O)N2CCN(c3ccccn3)CC2)no1,> 4 mM (inactive)
4,Cc1ccc(/C=C/C(=O)O)cc1S(=O)(=O)NCCO,> 4 mM (inactive)
5,OCc1cccc2c1OCO2,> 4 mM (inactive)
6,COc1cc(O)ccc1C(C)=O,> 4 mM (inactive)
7,CCc1ccc(/C=N/n2cnnc2)cc1,> 4 mM (inactive)
8,COC(=O)[C@@H]1C(O)CC[C@H]2CN3CCc4c([nH]c5ccccc45)[C@@H]3C[C@@H]21 (some centres undefined),> 4 mM (inactive)
9,Nc1c(N2CCCC2)cnn(-c2ccccc2)c1=O,> 4 mM (inactive)
10,CCC1(CC)C(=O)N=C(N)NC1=O,> 4 mM (inactive)
11,O=Cc1c(N2CCOCC2)nc2ccccn2c1=O,> 4 mM (inactive)
12,NC(=O)c1ccccc1N=Cc1ccco1,> 4 mM (inactive)
13,O=C1Cc2ccccc2N1c1ccccc1,> 4 mM (inactive)
14,NC(=O)CSc1nnc2ccc(-c3ccco3)nn12,> 4 mM (inactive)
15,Cc1ccc(S(=O)(=O)CC(=O)N2CCCC2)cc1,> 4 mM (inactive)
16,CC1CCCN(C/C(O)=C(\C#N)c2nc3ccccc3[nH]2)C1 (centres undefined),> 4 mM (inactive)
17,Cc1cc(C)cc(OC(=O)N2CCOCC2)c1,> 4 mM (inactive)
18,O=C(Nc1ccccc1Cl)c1cnccn1,> 4 mM (inactive)
19,CC1(C)Oc2ccc(N)cc2O1,> 4 mM (inactive)
20,COC(=O)c1ccc(/C=C2/NC(=S)NC2=O)cc1,> 4 mM (inactive)
21,O=C(O)c1ccc(Oc2ccccc2)nc1,> 4 mM (inactive)
22,OCCN1CCN(C(=S)c2ccc(Cl)cc2)CC1,> 4 mM (inactive)
23,C=C1C(=O)O[C@@H]2C3OC3(C)CC/C=C(\C)CC[C@@H]12 (some centres undefined),> 4 mM (inactive)
